≈ marks a conversion by molar mass, not a printed value.

The conditions of series [1]: Hornby et al. (2001); cited from earlier work.
The next series has as its system S. Mutans UA159. Kind of series: In vitro inhibition of S. Mutans biofilm growth on HA discs. The settings on record: 48 hours incubation, compared to controls, FIG. 3. Format: cell-based, Streptococcus Mutans. Here is the method:
S. Mutans UA159 was used in this study. S. Mutans were stored frozen at −80° C. A fresh culture was prepared before each experiment. A single colony of S. Mutans was inoculated into 3 mL of THYE (Todd-Hewitt Yeast Extract) medium and allow to growth statically overnight at 37° C. with 5% CO2. The overnight culture was diluted to a density of 5×10^4 CFU/ml with chemically defined biofilm media (CDM) (Biswas et al. (2007) J. Bacteriol., 189:6521-6531).
Autoclaved HA discs (7 mm×1.8 mm) were incubated with different micelle solutions, a farnesol solution in ethanol, or CDM in a 24-well plate for 1 hour to achieve maximum loading. The discs were then removed from the wells and vortex washed twice with saline for 10 seconds. The discs were subsequently washed with culture media to remove unbounded micelle. For the farnesol ethanol solution group, discs were washed twice with ethanol and then washed with saline. The HA discs were then transferred to 1 mL of diluted S. Mutans, and cultured statically for 48 hours to allow biofilm growth at 37° C. with 5% CO2.
On day three post bacteria inoculation, the HA discs were dip-washed 3 times with THYE media to remove loosely attached bacteria and then placed in 1 mL of THYE media. The surfaces of HA discs were gently scraped with a sterile spatula to harvest adherent cells. […]

The nature of series [2]: Binding potential and rate of bone-targeting micelles on hydroxyapatite (HA). The procedure:
The solvent was evaporated in vacuum to yield a polymeric film on the wall of the flask. The thin polymeric film formed was then hydrated with a 10 mM phosphate buffered saline solution (PBS, pH 7.4) at 50° C. to set the micelles. The micelles were prepared as the method mentioned above for bone-targeting micelles: 0.9% […], 0.1% ALN-[…], 0.02% RB-[…]; for controls: 1% […], 0.02% RB-[…]). […] The mixtures were allowed to be gently agitated for 1, 5, 10, or 30 minutes at room temperature. […] The spectra of the supernatant was recorded on a UV-Visible spectrophotometer and compared with that of the initial micelle solution. Micelle containing RB-[…] but no ALN-[…] and RB were used as controls in this experiment.

Take `CC(C)=CCCC(C)=CCCC(C)=CCO` [farnesol, 3,7,11-trimethyl-2,6,10-dodecatrien-1-ol]: in series [1], the water solubility is 1200 µM (≈ 267 µg/mL). Further, the “inhibition of S. Mutans biofilm formation on HA discs” value in the series with S. Mutans UA159 is “did not show inhibition”.
As for `CCN(CC)c1ccc2c(-c3ccccc3C(=O)O)c3ccc(=[N+](CC)CC)cc-3oc2c1.[Cl-]` [RB, Rhodamine B], in series [2] (30 minutes incubation, FIG. 4A), the “binding to HA (in words)” value is on record as “slightly bound”.
On to “Pluronic® 123-alendronate conjugate [ALN-P123]”, for which, in series [2] (10 minutes incubation, FIG. 4B), the “bound to HA” value is listed as 45%. The “bound to HA (ultimate binding equilibrium)” value in series [2] (30 minutes incubation) is recorded as 55%.

The values above are taken from US20110171144A1, “Functional Micelles for Hard Tissue Targeted Delivery of Chemicals” (priority 2008, published 2011).
